Source: patent US11578079B2, “SUMO inhibitor compounds and uses thereof” (CITY OF HOPE, priority 2018, dated 2023)

Assays:
SUMO = target: T1, SUMO (Homo sapiens, UniProt Q9UBT2); test: SUMO activity (Table I, biological activities); assay type: biochemical; design: key: + (less active); ++ (active); +++ (most active)
T1 sequence (Q9UBT2 1-640): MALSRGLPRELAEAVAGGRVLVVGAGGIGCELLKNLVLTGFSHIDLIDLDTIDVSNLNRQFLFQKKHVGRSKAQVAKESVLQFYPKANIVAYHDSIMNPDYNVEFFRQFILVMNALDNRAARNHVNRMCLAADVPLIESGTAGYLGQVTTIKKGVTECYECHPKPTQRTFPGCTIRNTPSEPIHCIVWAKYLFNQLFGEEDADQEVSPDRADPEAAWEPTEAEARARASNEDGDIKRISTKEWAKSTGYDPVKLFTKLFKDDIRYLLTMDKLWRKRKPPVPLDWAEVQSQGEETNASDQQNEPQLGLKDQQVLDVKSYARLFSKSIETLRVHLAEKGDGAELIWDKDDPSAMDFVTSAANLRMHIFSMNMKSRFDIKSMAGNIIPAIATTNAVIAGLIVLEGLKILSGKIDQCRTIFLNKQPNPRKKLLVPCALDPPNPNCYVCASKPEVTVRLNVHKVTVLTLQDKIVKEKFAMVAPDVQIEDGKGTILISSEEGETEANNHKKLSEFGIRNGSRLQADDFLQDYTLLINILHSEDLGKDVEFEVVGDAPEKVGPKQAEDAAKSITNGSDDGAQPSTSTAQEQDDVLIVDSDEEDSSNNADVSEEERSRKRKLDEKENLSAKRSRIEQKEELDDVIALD
T1 sequence (Q9UBE0 1-346 partner): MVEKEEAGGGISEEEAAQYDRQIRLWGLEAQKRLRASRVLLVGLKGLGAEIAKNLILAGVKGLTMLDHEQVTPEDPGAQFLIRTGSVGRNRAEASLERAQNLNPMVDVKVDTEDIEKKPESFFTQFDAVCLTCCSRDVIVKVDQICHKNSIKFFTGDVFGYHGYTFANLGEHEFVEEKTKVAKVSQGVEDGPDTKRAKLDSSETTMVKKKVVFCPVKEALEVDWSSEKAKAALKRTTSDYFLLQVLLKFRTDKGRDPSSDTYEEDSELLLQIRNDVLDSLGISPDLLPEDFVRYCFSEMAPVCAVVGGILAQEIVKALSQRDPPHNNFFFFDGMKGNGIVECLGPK

c-Myc = c-Myc activity (Table I, biological activities); design: key: + (less active); ++ (active); +++ (most active)

| Compound | SUMO (SUMO) | c-Myc (c-Myc) |
| --- | --- | --- |
| CCOC(=O)C1=C(C(=O)Nc2cccnc2)C2C=CC1(C(Nc1ccccc1)c1ccc(CN3CCOCC3)cc1)O2 (stereo not shown) [Compound 550] | +++ | + |
| COC(=O)C1=C(C(=O)NC2CCN(C)CC2)C2C=CC1(C(Cc1ccccc1)Nc1ccc(F)cc1)O2 (stereo not shown) [Compound 262] | ++ | ++ |
| COC(=O)C1=C(C(=O)NC2CCN(C)CC2)C2C=CC1(C(Cc1ccccc1)Oc1ccccc1)O2 (stereo not shown) [Compound 292] | ++ | ++ |
| CCOC(=O)C1=C(C(=O)Nc2ccccc2OC)C2C=CC1(C(Nc1ccccc1)c1ccc(CN3CCOCC3)cc1)O2 (stereo not shown) [Compound 597] | + | ++ |
| CCOC(=O)C1=C(C(=O)Nc2c(C)cccc2CC)C2C=CC1(C(Nc1ccccc1)c1ccc(CN3CCOCC3)cc1)O2 (stereo not shown) [Compound 617] | ++ | ++ |
| CC12C=CC(C(Cc3ccccc3)Nc3ccccc3)(C=C1C(=O)c1ccc(F)cc1)O2 (stereo not shown) [Compound 526] | + | + |
| CCOC(=O)C1=C(C(=O)NCCN(C)C)C2C=CC1(C(Nc1ccccc1)c1ccc(CN3CCOCC3)cc1)O2 (stereo not shown) [Compound 571] | ++ | + |
| COC(=O)C1=C(C(=O)NCCN(C)C)C2C=CC1(C(Cc1ccccc1F)Nc1cc(F)cc(F)c1)O2 (stereo not shown) [Compound 455] | ++ | ++ |
| COC(=O)C1=C(C(=O)NC2CCN(C(=O)c3ccc(C#N)cc3)CC2)C2C=CC1(C(Cc1ccccc1)Nc1ccccc1)O2 (stereo not shown) [Compound 379] | ++ | + |
| COC(=O)C1=C(C(=O)NC2CCN(C(C)=O)CC2)C2CCC1(C(Cc1ccccc1)Nc1ccccc1)O2 (stereo not shown) [Compound 368] | + | + |
| COC(=O)C1=C(C(=O)OC)C2(C(Cc3ccccc3)Oc3ccccc3)OC1C1OC12 (stereo not shown) [Compound 515] | ++ | + |
| CCOC(=O)C1=C(C(=O)Nc2ccc(F)cc2)C2C=CC1(C(Nc1ccccc1)c1ccc(CN3CCOCC3)cc1)O2 (stereo not shown) [Compound 601] | ++ | + |
| CCN(CC)CCNC(=O)C1=C(C(=O)OC)C2(C(Cc3ccc(C)cc3)Nc3cc(F)cc(F)c3)C=CC1O2 (stereo not shown) [Compound 429] | ++ | ++ |
| COC(=O)C1=C(C(=O)NC2CCNCC2)C2C=CC1(C(Cc1ccccc1)Nc1ccccc1)O2 (stereo not shown) [Compound 225] | +++ | ++ |
| COC(=O)C1=C(C(=O)OC)C2(C(Cc3ccc(F)cc3)Nc3ccccc3)C=CC1O2 (stereo not shown) [Compound 445] | ++ | + |
| COC(=O)C1=C(C(=O)NNc2cc(C(F)(F)F)cc(C(F)(F)F)c2)C2(C(Cc3ccccc3)Nc3cc(F)cc(F)c3)C=CC1O2 (stereo not shown) [Compound 316] | ++ | + |
| COC(=O)C1=C(C(=O)NC2CCN(C(=O)c3ccsc3)CC2)C2C=CC1(C(Cc1ccccc1)Nc1ccccc1)O2 (stereo not shown) [Compound 383] | ++ | + |
| CCOC(=O)C1=C(C(=O)Nc2ccccc2C)C2C=CC1(C(Nc1ccccc1)c1ccc(CN3CCOCC3)cc1)O2 (stereo not shown) [Compound 591] | ++ | ++ |
| CCOC(=O)C1=C(C(=O)Nc2ccc(C)c(F)c2)C2C=CC1(C(Nc1cccc(OC)c1)c1ccc(CN3CCOCC3)cc1)O2 (stereo not shown) [Compound 615] | + | + |
| COC(=O)C1=C(C(=O)O)C2C=CC1(C(Cc1ccccc1)Nc1cc(F)cc(Cl)c1)O2 (stereo not shown) [Compound 214] | ++ | + |
| CCOc1cccc(NC(Cc2ccccc2)C23C=CC(O2)C(C(=O)NCCN2CCOCC2)=C3C(=O)OC)c1 (stereo not shown) [Compound 252] | +++ | ++ |
| COC(=O)C1=C(C(=O)NC2CCN(S(=O)(=O)c3ccccc3)CC2)C2C=CC1(C(Cc1ccccc1)Nc1ccccc1)O2 (stereo not shown) [Compound 358] | + | + |
| COC(=O)C1=C(C(=O)NCCN(C)C(=O)OC(C)(C)C)C2C=CC1(C(Cc1ccccc1)Nc1ccccc1)O2 (stereo not shown) [Compound 419] | ++ | + |
| COC(=O)C1=C(C(=O)OC)C2(C(Nc3ccccc3)C3CCC3)C=CC1O2 (stereo not shown) [Compound 184] | ++ | + |
| COC(=O)C1=C(C(=O)NC(C)C(N)=O)C2C=CC1(C(Cc1ccccc1)Nc1cc(F)cc(F)c1)O2 (stereo not shown) [Compound 243] | ++ | + |

| Compound | SUMO (SUMO) | c-Myc (c-Myc) |
| --- | --- | --- |
| COC(=O)C1=C(C(=O)O)C2(C(Cc3ccccc3)Nc3cc(F)cc(F)c3)C=CC1O2 (stereo not shown) [Compound 310] | + | + |
| CC#CC(Nc1ccccc1)C12C=CC(O1)C(C(=O)OC)=C2C(=O)OC (stereo not shown) [Compound 172] | ++ | ++ |
| COC(=O)C1=C(C(=O)NC2CCN(C)CC2)C2CCC1(C(Cc1ccccc1)Nc1ccccc1)O2 (stereo not shown) [Compound 304] | + | + |
| COC(=O)C1=C(C(=O)Nc2ccc(N3CCN(C)CC3)cc2)C2CCC1(C(Cc1ccccc1)Nc1ccccc1)O2 (stereo not shown) [Compound 371] | + | + |
| COC(=O)C1=C(C(=O)NCCN(C)C)C2C=CC1(C(Cc1ccccc1)Nc1cccc(F)c1)O2 (stereo not shown) [Compound 420] | ++ | ++ |
| COC(=O)C1=C(C(N)=O)C2C=CC1(C(Cc1ccccc1)Nc1cc(F)cc(Cl)c1)O2 (stereo not shown) [Compound 217] | + | ++ |
| C=CCC(Nc1ccccc1)C12C=CC(O1)C(C(=O)NCCN(C)C)=C2C(=O)OC (stereo not shown) [Compound 415] | ++ | + |
| COC(=O)C1=C(C(=O)NCCN(C)C)C2C=CC1(C(Cc1ccccc1)Nc1cc(F)cc(F)c1)O2 (stereo not shown) [Compound 399] | ++ | + |
| COC(=O)C1=C(C(=O)NNc2cc(C(F)(F)F)cc(C(F)(F)F)c2)C2C=CC1(C(Cc1ccccc1)Nc1cc(F)cc(F)c1)O2 (stereo not shown) [Compound 317] | + | + |
| COC(=O)C1=C(C(=O)Nc2ccc(CN3CCCC3)cc2)C2C=CC1(C(Cc1ccccc1)Nc1ccccc1)O2 (stereo not shown) [Compound 508] | ++ | + |
| COC(=O)C1=C(C(=O)Nc2cnc(C)nc2)C2C=CC1(C(Cc1ccccc1)Oc1ccccc1)O2 (stereo not shown) [Compound 480] | ++ | + |
| O=C(C1=CC2(C3OCCO3)C=CC1O2)c1ccc(F)cc1 (stereo not shown) [Compound 523] | ++ | + |
| CCN(CC)CCNC(=O)C1=C(C(=O)OC)C2(C(Cc3ccc(C(F)(F)F)cc3)Nc3ccccc3)C=CC1O2 (stereo not shown) [Compound 424] | ++ | ++ |
| COC(=O)C1=C(C(=O)Nc2ccc(OC)cc2)C2C=CC1(C(Nc1ccccc1)C1CCC1)O2 (stereo not shown) [Compound 178] | ++ | + |
| COC(=O)C1=C(C(=O)NC(C)(C)C)C2C=CC1(C(Cc1ccccc1)Nc1ccccc1)O2 (stereo not shown) [Compound 161] | + | + |
| COC(=O)C1=C(C(N)=O)C2C=CC1(C(Cc1ccccc1)Nc1ccccc1)O2 (stereo not shown) [Compound 151] | ++ | + |
| COC(=O)C1=C(C(=O)NC2CCN(C)C2)C2C=CC1(C(Cc1ccccc1)Nc1ccccc1)O2 (stereo not shown) [Compound 239] | +++ | + |
| COC(=O)C1=C(C(=O)NCc2ccccn2)C2OC1(C(Cc1ccccc1)Oc1ccccc1)C1OC21 (stereo not shown) [Compound 547] | ++ | ++ |
| COC(=O)C1=C(C(=O)NCc2ccncc2)C2C=CC1(C(Cc1ccccc1)Nc1cc(F)cc(Cl)c1)O2 (stereo not shown) [Compound 216] | ++ | ++ |
| COC(=O)C1=C(C(=O)NC2CCN(C(C)=O)CC2)C2C=CC1(C(Cc1ccccc1)Nc1ccccc1)O2 (stereo not shown) [Compound 287] | ++ | ++ |
| COC(=O)C1=C(C(=O)Nc2ccc(OC)c(F)c2)C2C=CC1(C(Cc1ccccc1)Nc1ccccc1)O2 (stereo not shown) [Compound 308] | + | + |
| COC(=O)C1=C(C(=O)Nc2c(C)cccc2C)C2C=CC1(C(Cc1ccccc1)Nc1ccccc1)O2 (stereo not shown) [Compound 354] | + | + |
| COC(=O)C1=C(C(=O)Nc2ccc(C)c(F)c2)C2C=CC1(C(Cc1ccccc1)Nc1ccccc1F)O2 (stereo not shown) [Compound 351] | +++ | + |
| COCCN1CCC(NC(=O)C2=C(C(=O)OC)C3(C(Cc4ccccc4)Nc4ccccc4)C=CC2O3)CC1 (stereo not shown) [Compound 278] | +++ | ++ |
| COC(=O)C1=C(C(=O)NCCN(C)C)C2C=CC1(C(Cc1ccc(F)cc1)Nc1cc(F)cc(Cl)c1)O2 (stereo not shown) [Compound 452] | ++ | + |
